Patent US7652037B2, “Methods of lowering lipid levels in a mammal” (City Of Hope, priority 2003, dated 2010)

Key:
[1] = Hydroxyl radical production, hydroxylation of benzoate by H2O2; conditions: sodium benzoate + H2O2, cell-free
Protocol: The effects of the compounds on free radical production were evaluated in a cell-free system. In vitro hydroxyl radical production was determined by the hydroxylation of benzoate by H2O2 as described in Giardino et al., Diabetes 47:1114-1120, 1998. In brief, 30 mmol/l sodium benzoate in PBS buffer, pH 7.4, was incubated with 10 mmol/l H2O2 overnight at 37° C. alone and in the presence of various amounts of inhibitor compounds. After incubation, aliquots from each sample were analyzed for fluorescence (305 nm excitation; 408 nm emission). Results were expressed as the amount of salicylate equivalent (μM) produced by the hydroxylation of benzoate. Mannitol, a known hydroxyl radical scavenger, was included in the experiment as control.

[2] = test system: STZ-Diabetic Rats; assay: Renal parameters in STZ-diabetic rats treated with LR-9 or LR-74 (Example 10); assay type: in vivo, rat; conditions: for Kidney/Body wt. Ratio / Plasma Creatinine / Urinary Albumin: 50 mg/L in drinking water, 32 weeks; for decrease of elevated plasma creatinine concentrations: diabetic rats
Protocol: (§1) Diabetes was induced in male Sprague-Dawley rats by a single i.p. injection of STZ (65 mg/kg in citrate buffer, pH 4.5) after an overnight fast. Non-diabetic animals were injected with citrate buffer only. One week after STZ injection, only animals with >20 mmol/L plasma glucose were classified as diabetic and included in the study. Diabetic rats were divided randomly into the following treatment groups: diabetic untreated (D); and two diabetic treatment groups, receiving either LR-9 (D+LR-9) or LR-74 (D+LR-74) at 50 mg/L in drinking water. Three non-diabetic groups were studied concurrently: one untreated non-diabetic group (ND), and two non-diabetic groups treated with either LR-9 (ND+LR-9) or LR-74 (ND+LR-74) at 50 mg/L in drinking water.
(§2) Both plasma glucose and body weight were checked before administration of the drug, and no differences were detected among the three diabetic treatment groups or among the three non-diabetic groups. All animals were housed individually and were given free access to food and water. Glycemic control and body weights were monitored periodically. To limit hyperglycemia and ensure that animals maintained body weight, diabetic animals received 3 IU of ultralente insulin two to three times per week. The study was carried out over 32 weeks. Progression of renal dysfunction was assessed by measuring urinary albumin and plasma creatinine concentrations according to known methods. Figarola et al., Diabetologia 46:1140-115, 2003.

[3] = test system: STZ-Diabetic Rats; assay: Body weight and glycemia in STZ-diabetic rats (Examples 10 and 14); assay type: in vivo, rat; conditions: for Body Weight / HbA1c / Plasma Glucose: 50 mg/L in drinking water, 32 weeks; for effect on hyperglycemia and body weight gains: either ND or D rats
Protocol: as §1, §2
as §2, with “Rats were treated and divided into treatment groups as described in Example 10. Both” for “Both”, “weeks.” for “weeks. Progression of renal dysfunction was assessed by measuring urinary albumin and plasma creatinine concentrations according to known methods. Figarola et al., Diabetologia 46:1140-115, 2003.”

[4] = Carbonyl trapping activity; conditions: compared with AG, PM and LR-90

Row | SMILES | inhibition of hydroxyl radical formation [1] | Kidney/Body wt. Ratio ([2]; diabetic (D) rats) | Plasma Creatinine ([2]; diabetic (D) rats) | Urinary Albumin ([2]; diabetic (D) rats) | decrease of elevated plasma creatinine concentrations [2] | Kidney/Body wt. Ratio ([2]; non-diabetic (ND) rats) | Plasma Creatinine ([2]; non-diabetic (ND) rats) | Urinary Albumin ([2]; non-diabetic (ND) rats) | Body Weight ([3]; diabetic (D) rats) | HbA1c ([3]; diabetic (D) rats) | Plasma Glucose ([3]; diabetic (D) rats) | effect on hyperglycemia and body weight gains [3] | Body Weight ([3]; non-diabetic (ND) rats) | HbA1c ([3]; non-diabetic (ND) rats) | Plasma Glucose ([3]; non-diabetic (ND) rats) | carbonyl trapping activities [4]
1 | CC(C)(Oc1ccc(NC(=O)c2ccc3ccccc3c2)cc1)C(=O)O [LR-9, 4-(2-napthylcarboxamido) phenoxyisobutyric acid] | strong inhibitors | 1.58 ± 0.11 g/100 g | 1.79 ± 0.39 mg/dL | 18.0 ± 3.7 mg/42 hr | ~50% | 0.51 ± 0.01 g/100 g | 0.42 ± 0.02 mg/dL | 4.8 ± 1.2 mg/42 hr | 288.0 ± 29.3 g | 2.0 ± 0.1 % | 27.1 ± 0.5 mmol/L | no effect | 681.0 ± 4.6 g | 0.9 ± 0.1% | 8.2 ± 0.5 mmol/L | weaker
2 | CC(Oc1cccc2cccnc12)C(=O)O (centres unmarked) [LR-74, 2-(8-quinolinoxy) propionic acid] | strong inhibitors | 1.52 ± 0.10 g/100 g | 1.64 ± 0.44 mg/dL | 14.3 ± 3.7 mg/42 hr | ~50% | 0.52 ± 0.01 g/100 g | 0.42 ± 0.03 mg/dL | 4.6 ± 1.2 mg/42 hr | 314.7 ± 21.6 g | 2.1 ± 0.1 % | 26.9 ± 0.6 mmol/L | no effect | 744.0 ± 25.8 g | 0.9 ± 0.1% | 6.8 ± 0.4 mmol/L | weaker
